EC50 and cytokine-induced beta-cell death data for 19 compounds are collected here from patent US8741905B2, “Compounds and methods for treating autoimmune diseases” (The Broad Institute, Inc., priority 2010, dated 2014).

A value given as a limit tells only on which side of the number the result lay.

In test [1] the test system is INS-1E cells. The test can be described thus: Cellular ATP levels (CellTiter-Glo) in cytokine-treated INS-1E cells; suppression of cytokine-induced beta-cell apoptosis. It is filed as cell-based, rat. The protocol: The compounds were analyzed for activity utilizing methods described in Chou et al. (ACS Chem. Biol. 2010 Aug. 20; 5(8):729-34).
INS-1E cells were seeded at 10,000 cells per well using a Multidrop Combi (Thermo Labsystems) in white optical 384-well plates (Corning Life Sciences). After overnight incubation, medium was removed and 50 μL of RPMI containing 1% FBS and a combination of cytokines (10 ng mL-^1 IL-1β, 50 ng mL^−1 IFN-γ, 25 ngmL^−1 TNF-α) was added to every well. Using libraries of compounds dissolved in DMSO and a CyBi-Well pin-transfer robot (CyBio Corp.), 0.1 μL of each compound was added. After 48 h, medium was removed and 20 μL of CellTiter-Glo reagent was added. Luminescence was measured after 10 min of incubation using an EnVision plate reader (PerkinElmer).
Instrument output files were processed using Pipeline Pilot (Accelrys) and input to MATLAB (The MathWorks) for data normalization. Compound performance scores relative to a distribution of mock-treated (DMSO) wells were calculated using a revised version of the scoring system underlying ChemBank. (Seiler et al., Nucleic Acids Res. 36, D351-359, 2008). The role of replicate treatments was further developed as follows: first, mock-treatment distributions were modeled using all mock-treated wells measured on a single day, regardless of their nominal replicate; second, per-compound scores weighted each in-plate background-subtracted measurement by the uncertainty in that measurement, using the method of maximum likelihood. The uncertainty in a single background-subtracted measurement was estimated using the number of mock-treated wells on the plate and, as a measure of the assay noise, the standard deviation of the per-day mock-treatment distribution. The signal, a weighted average of differences, was scaled by the noise, the standard deviation of the mock treatment distribution.
INS-1E cells were seeded at 10,000 cells/well using a Multidrop Combi (Thermo Labsystems) in white optical 384-well plates (Corning Life Sciences). After overnight incubation, medium was removed and 50 μL RPMI containing the treated compound, 1% FBS and a combination of cytokines (10 ng/mL IL-1β, 50 ng/mL IFN-γ, 25 ng/mL TNF-α) was added to every well. After incubation for 48 hr, medium was removed and 20 μL CellTiter-Glo reagent was added. Luminescence was measured after 10-min incubation using an EnVision plate reader (PerkinElmer).
(In general: ATP-based viability assays read luminescence as a measure of living cells.)

The subject of test [2] is INS-1E cells. Put plainly: Caspase-3 activity assay (Caspase-Glo 3/7) in cytokine-treated INS-1E cells. Format: cell-based, rat. The note with it: cytokines, 48 h, Caspase-Glo 3/7. The protocol: INS-1E cells were seeded at 5,000 cells per well in white optical 384-well plates and treated as described for highthroughput screening. After treatment with cytokines and compounds for 48 h, medium was removed and 20 μL Caspase-Glo 3/7 reagent was added. Luminescence was measured after 2 h of incubation using an EnVision plate reader.

The test system of another test is beta cells. The note with it: HDAC inhibition, presumably by decreasing NF-κB transactivation; cited from earlier work.
The mark [3] stands for this setting: Rattus norvegicus, INS-1E cells, cytokines IL-1β, IFN-γ, TNF-α, 48 h, CellTiter-Glo, read-out: CTG EC50 in HTS.
The mark [4] stands for this setting: INS-1E cells, cytokines IL-1β, IFN-γ, TNF-α, 48 h, CellTiter-Glo, read-out: CTG EC50 in HTS.

As usually defined, the EC50 is the concentration that produces a half-maximal response. `COc1ccc(S(=O)(=O)N(C)C[C@@H]2Oc3c(NC(=O)Nc4cccc(Cl)c4Cl)cccc3C(=O)N([C@@H](C)CO)C[C@H]2C)cc1` [Compound 32A, N-(((2R,3R)-10-(3-(2,3-Dichlorophenyl)ureido)-5-((S)-1-hydroxypropan-2-yl)-3-methyl-6-oxo-3,4,5,6-tetrahydro-2H-benzo[b][1,5]oxazocin-2-yl)methyl)-4-methoxy-N-methylbenzenesulfonamide]: the values for the EC50 with INS-1E cells [1] (setting [3]) and in the test with INS-1E cells [2] (Rattus norvegicus) were greater than 20 µM and greater than 25 µM, respectively.

Turning to `C[C@@H]1CN([C@@H](C)CO)C(=O)c2cccc(NC(=O)Nc3cccc4ccccc34)c2O[C@H]1CN(C)S(=O)(=O)c1ccc2c(n1)N(C)CCO2` [Compound 26A], the EC50 in the test on INS-1E cells [1] (setting [4]) and in the test with INS-1E cells [2] was greater than 25 µM in each case.

For the compound `C[C@@H]1CN([C@@H](C)CO)C(=O)c2cccc(NC(=O)Nc3cccc4ccccc34)c2O[C@H]1CN(C)S(=O)(=O)c1ccccc1F` [Compound 8A], the EC50 in the test with INS-1E cells [1] (setting [4]) and with INS-1E cells [2] was greater than 25 µM in each case.

`Cc1ccc(S(=O)(=O)N(C)C[C@@H]2Oc3c(NC(=O)Nc4cccc5ccccc45)cccc3C(=O)N([C@@H](C)CO)C[C@H]2C)cc1` [Compound 2A, N-(((2R,3R)-5-((S)-1-hydroxypropan-2-yl)-3-methyl-10-(3-(naphthalen-1-yl)ureido)-6-oxo-3,4,5,6-tetrahydro-2H-benzo[b][1,5]oxazocin-2-yl)methyl)-N,4-dimethylbenzenesulfonamide]: the EC50 is 5.5 µM in the test with INS-1E cells [1] (Rattus norvegicus, INS-1E, assay not named, read-out: EC50); greater than 10 µM in the test on INS-1E cells [1] (setting [3]); greater than 25 µM in the test with INS-1E cells [2] (Rattus norvegicus).

Take `Cc1ccc(S(=O)(=O)N(C)C[C@@H]2Oc3c(NC(=O)Nc4ccc(F)cc4)cccc3C(=O)N([C@@H](C)CO)C[C@H]2C)cc1` [Compound 37A]: the EC50 with INS-1E cells [1] (setting [4]) and in the test with INS-1E cells [2] was greater than 25 µM each time.

For the compound `Cc1ccc(S(=O)(=O)N(C)C[C@@H]2Oc3c(NC(=O)Nc4cccc5c4ccn5C)cccc3C(=O)N([C@@H](C)CO)C[C@H]2C)cc1` [Compound 3A, N-(((2R,3R)-5-((S)-1-hydroxypropan-2-yl)-3-methyl-10-(3-(1-methyl-1H-indol-4-yl)ureido)-6-oxo-3,4,5,6-tetrahydro-2H-benzo[b][1,5]oxazocin-2-yl)methyl)-N,4-dimethylbenzenesulfonamide], the EC50 with INS-1E cells [1] (setting [3]) is greater than 25 µM; with INS-1E cells [2] (Rattus norvegicus), greater than 10 µM.

On to `C[C@@H]1CN([C@@H](C)CO)C(=O)c2cccc(NC(=O)Nc3cccc4ccccc34)c2O[C@H]1CN(C)S(=O)(=O)c1ccc2c(c1)OCC2` [Compound 24A], for which the EC50 in the test on INS-1E cells [1] (setting [4]) and in the test with INS-1E cells [2] was greater than 25 µM throughout.

As for `CC(/C=C/C(=O)NO)=C\[C@@H](C)C(=O)c1ccc(N(C)C)cc1` [TSA, trichostatin A], the cytokine-induced beta-cell death entry in the test on beta cells is on record as “can prevent cytokine-induced beta-cell death”.

On to `C[C@@H]1CN([C@@H](C)CO)C(=O)c2cccc(NC(=O)Nc3ccccc3)c2O[C@H]1CN(C)S(=O)(=O)c1ccc(Cl)cc1` [Compound 31A], for which the EC50 in the test with INS-1E cells [1] (setting [4]) and in the test on INS-1E cells [2] was greater than 20 µM throughout.

With `COc1ccc(S(=O)(=O)N(C)C[C@@H]2Oc3c(NC(=O)Nc4cccc(-c5ccccc5)c4)cccc3C(=O)N([C@@H](C)CO)C[C@H]2C)cc1` [Compound 40A], the EC50 in the test with INS-1E cells [1] (setting [4]) and with INS-1E cells [2] was greater than 25 µM throughout.

For the compound `COc1ccc(S(=O)(=O)N(C)C[C@@H]2Oc3c(NC(=O)Nc4ccc5occc5c4)cccc3C(=O)N([C@@H](C)CO)C[C@H]2C)cc1` [Compound 44A], the EC50 with INS-1E cells [1] (setting [4]) and in the test on INS-1E cells [2] was greater than 25 µM each time.

With `COc1ccc(S(=O)(=O)N(C)C[C@@H]2Oc3c(NC(=O)Nc4cccc5c4CCCC5)cccc3C(=O)N([C@@H](C)CO)C[C@H]2C)cc1` [Compound 43A], the EC50 in the test with INS-1E cells [1] (setting [4]) and in the test on INS-1E cells [2] was greater than 25 µM throughout.

Turning to `COc1ccc(S(=O)(=O)N(C)C[C@@H]2Oc3c(NC(=O)Nc4ccc5c(c4)OCCO5)cccc3C(=O)N([C@@H](C)CO)C[C@H]2C)cc1` [Compound 47A], the EC50 with INS-1E cells [1] (setting [4]) and in the test on INS-1E cells [2] was greater than 25 µM each time.

With `COc1ccc(S(=O)(=O)N(C)C[C@@H]2Oc3c(NC(=O)Nc4cc(F)cc5c4OCOC5)cccc3C(=O)N([C@@H](C)CO)C[C@H]2C)cc1` [Compound 48A], the EC50 with INS-1E cells [1] (setting [4]) and with INS-1E cells [2] was greater than 25 µM throughout.

In the case of `O=C(CCCCCCC(=O)Nc1ccccc1)NO` [SAHA, suberoylanilide hydroxamic acid], the cytokine-induced beta-cell death entry in the test on beta cells was “can prevent cytokine-induced beta-cell death”.

In the case of `COc1cccc(S(=O)(=O)N(C)C[C@@H]2Oc3c(NC(=O)Nc4cccc5ccccc45)cccc3C(=O)N([C@@H](C)CO)C[C@H]2C)c1` [Compound 18A], the EC50 in the test on INS-1E cells [1] (setting [4]) and in the test with INS-1E cells [2] was greater than 25 µM in each case.

As to `C[C@@H]1CN([C@@H](C)CO)C(=O)c2cccc(NC(=O)Nc3cccc4ccccc34)c2O[C@H]1CN(C)S(=O)(=O)c1ccc2c(c1)OCO2` [Compound 23A], the EC50 in the test on INS-1E cells [1] (setting [4]) and with INS-1E cells [2] was greater than 25 µM in each case.

For `COc1ccc(S(=O)(=O)N(C)C[C@@H]2Oc3c(NC(=O)Nc4cccc5ccccc45)cccc3C(=O)N([C@@H](C)CO)C[C@H]2C)cc1F` [Compound 10A], the EC50 in the test with INS-1E cells [1] (setting [4]) is greater than 20 µM; in the test on INS-1E cells [2] it was greater than 25 µM.

For `COc1ccc(S(=O)(=O)N(C)C[C@@H]2Oc3c(NC(=O)c4cc(C)nn4C)cccc3C(=O)N([C@@H](C)CO)C[C@H]2C)cc1` [Compound 34A], the EC50 in the test on INS-1E cells [1] (setting [4]) and in the test with INS-1E cells [2] was greater than 25 µM in each case.
